Where a SMILES comes first, the peptide text is derived from it. Where no end group is shown, it is not given here.

Data set [1] deals with human-derived chondrocyte cells (C28/I2, human chondrocyte cell line). Kind of data set: CCK-8 assay, cytotoxicity in chondrocytes. In kind it is cell-based. Particulars: different concentrations, after 3 days, FIG. 1 and FIG. 2. The protocol:
(§1) The cytotoxicity of Peptide-1 or Peptide-2 upon addition to human-derived chondrocyte cells (C28/I2, human chondrocyte cell line) and human adipose-derived mesenchymal stem cells (AD-MSC) was analyzed using a CCK-8 assay.
Specifically, human-derived chondrocytes were seeded in a 96-well plate at a density of 3 × 10^3 cells/well and cultured in DMEM medium (cat. 11995-065, Gibco) for 24 hours.
(In general: Formazan colour is commonly taken as a measure of viable cells.)

In data set [2] the test system is human adipose-derived mesenchymal stem cells (AD-MSC). Kind of data set: CCK-8 assay, cytotoxicity in AD-MSC. In kind it is cell-based. Particulars: different concentrations, after 7 days, FIG. 3. The procedure:
as §1

In the case of `N[C@@H](CCC(=O)O)C(=O)N[C@@H](CC(=O)O)C(=O)N[C@@H](CC(=O)O)C(=O)O` [Peptide-2, EDD] (H-Glu-Asp-Asp-OH), in data set [1], the “toxicity (CCK-8 activity)” value is reported as “did not exhibit toxicity”.

For the molecule KRRRKRK [Peptide-1, KRRRKRK], the “toxicity (CCK-8 activity)” value in data set [1] and in data set [2] was “did not exhibit toxicity” throughout.
